Data: patent US8716333B2, “Process and compounds for the manufacture of oseltamivir and analogs thereof, and new antiviral agents” (Brock University, priority 2009, dated 2014)

Assays:
Neu1 sialidase = target: T1, Neu1 sialidase (Mus musculus, UniProt O35657); assay: LPS-induced Neu1 sialidase activity in live RAW-blue macrophage cells (4MU-NeuAc fluorescence); type: cell-based; details: for IC50: LPS-induced sialidase activity on the cell surface of live RAW-blue macrophage cells, substrate 4MU-NeuAc, fluorescence at 1-2 min
T1 construct: endogenous in cells; host or cells: RAW-blue macrophage cells
Description: Inhibitory Potency of Compounds of the Application on Lipopolysaccharide (LPS)-Induced Neu1 Sialidase Activity in Live Raw-Blue Macrophage Cells
Compounds of the application were assessed for antiviral activity using an assay that detects sialidase activity on the surface of viable cells. […] Fluorescent images were taken at 1-2 minutes after adding the substrate using epi-fluorescent microscopy (40× objective). The mean fluorescence surrounding the cells for each of the images was measured using Image J software.

Structure (SMILES) | melting point | IC50 (Neu1 sialidase) | also measured
CCOC(=O)C1=C[C@@H]2OC(C)=N[C@@H]2[C@@H](NC(=O)OC(C)(C)C)C1 [Compound 14, (3aR,4S,7aS)-ethyl 4-(tert-butoxycarbonylamino)-2-methyl-3a,4,5,7a-tetrahydrobenzo[d]oxazole-6-carboxylate] | 45 to 49 °C | – | –
CCOC(=O)C1=C[C@@H](OC(CC)CC)[C@H](NC(C)=O)[C@@H](NC(=O)OC(C)(C)C)C1 [Compound 15, (3R,4R,5S)-ethyl 4-acetamido-5-(tert-butoxycarbonylamino)-3-(pentan-3-yloxy)cyclohex-1-enecarboxylate] | 144 to 145 °C | – | –
CC(=O)N[C@@H]1C=C[C@@](O)(C(=O)O)[C@H]2OC(C)(C)O[C@@H]12 [Compound 16, Sodium (3aS,4S,7R,7aS)-7-acetamido-4-hydroxy-2,2-dimethyl-3a,4,7,7a-tetrahydrobenzo[d][1,3]dioxole-4-carboxylate] | – | 140 nM | –
CC(=O)N[C@@H]1/C(=N/O)C=C(C(=O)O)[C@H]2OC(C)(C)O[C@H]21 [Compound 17, Sodium (3aR,7R,7aS,E)-7-acetamido-6-(hydroxyimino)-2,2-dimethyl-3a,6,7,7a-tetrahydrobenzo[d][1,3]dioxole-4-carboxylate] | – | 12.7 nM | –
CC(=O)N[C@H]1[C@@H]2OC(C)(C)O[C@@H]2C(C(=O)O)=C[C@H]1O [Compound 19, Sodium (3aR,6R,7R,7aS)-7-acetamido-6-hydroxy-2,2-dimethyl-3a,6,7,7a-tetrahydrobenzo[d][1,3]dioxole-4-carboxylate] | – | 7410 nM | –
CCOC(=O)C1=C[C@@H](OC(CC)CC)[C@H](NC(C)=O)[C@@H](N)C1 [oseltamivir phosphate 1a (Tamiflu ®), oseltamivir phosphate, reference compound] | – | – | inhibition of LPS-induced sialidase activity (Neu1 sialidase; RAW-blue macrophage cells, dose dependent manner): completely inhibited
